Patent US5066802A, “Process for preparing pyrido-benzothiazine derivatives having high antibacterial activity and high bioavailability to tissues” (Mediolanum Farmaceutici Srl., priority 1987, dated 1991)
In brackets after ≈: the same amount, converted by molar mass. Where a name gives a salt, the structure may show the parent alone.

Tests used:
Format in all cases: cell-based
Staphylococcus 7 = assay: agar dilution MIC, Staphylococcus 7; details: Mueller-Hinton agar, 10^5 CFU per point, about 18 hrs, 37° C., read-out: Minimum Inhibitory Concentrations
Description: (§1) The antibacterial activity of the compounds according to the present invention was evaluated against pathogenic strains of recent clinical isolation, both gram positive and gram negative. Minimum inhibitory concentration (MIC) were determined by the diluition method in agar, using a multipoint inoculator (Denley Techn. Ltd. England). As a culture medium Mueller-Hinton agar (DIFCO) in Petri capsules was used.
(§2) The bacterial inoculum, originating from an overnight broth was inoculated by a multipoint and was standardized in such a way as to obtain 10^5 colony forming units (CFU) per point.
(§3) After about 18 hrs incubation in a thermostat at 37° C., the bacterial growth was evaluated on each plate.

E. coli 963 = assay: agar dilution MIC, E. coli 963; details: Escherichia coli, Mueller-Hinton agar, 10^5 CFU per point, about 18 hrs, 37° C., read-out: Minimum Inhibitory Concentrations
Description: as §1, §2, §3

Citrobacter 120 = assay: agar dilution MIC, Citrobacter 120; details: Mueller-Hinton agar, 10^5 CFU per point, about 18 hrs, 37° C., read-out: Minimum Inhibitory Concentrations
Description: as §1, §2, §3

Staphylococcus 29 = assay: agar dilution MIC, Staphylococcus 29; details: Mueller-Hinton agar, 10^5 CFU per point, about 18 hrs, 37° C., read-out: Minimum Inhibitory Concentrations
Description: as §1, §2, §3

Staphylococcus 27 = assay: agar dilution MIC, Staphylococcus 27; details: Mueller-Hinton agar, 10^5 CFU per point, about 18 hrs, 37° C., read-out: Minimum Inhibitory Concentrations
Description: as §1, §2, §3

Enterobacter 2653 = assay: agar dilution MIC, Enterobacter 2653; details: Mueller-Hinton agar, 10^5 CFU per point, about 18 hrs, 37° C., read-out: Minimum Inhibitory Concentrations
Description: as §1, §2, §3

Klebsiella 5 = assay: agar dilution MIC, Klebsiella 5; details: Mueller-Hinton agar, 10^5 CFU per point, about 18 hrs, 37° C., read-out: Minimum Inhibitory Concentrations
Description: as §1, §2, §3

Klebsiella 4 = assay: agar dilution MIC, Klebsiella 4; details: Mueller-Hinton agar, 10^5 CFU per point, about 18 hrs, 37° C., read-out: Minimum Inhibitory Concentrations
Description: as §1, §2, §3

Salmonella 9 = assay: agar dilution MIC, Salmonella 9; details: Mueller-Hinton agar, 10^5 CFU per point, about 18 hrs, 37° C., read-out: Minimum Inhibitory Concentrations
Description: as §1, §2, §3

Enterobacter 41 = assay: agar dilution MIC, Enterobacter 41; details: Mueller-Hinton agar, 10^5 CFU per point, about 18 hrs, 37° C., read-out: Minimum Inhibitory Concentrations
Description: as §1, §2, §3

Citrobacter 118 = assay: agar dilution MIC, Citrobacter 118; details: Mueller-Hinton agar, 10^5 CFU per point, about 18 hrs, 37° C., read-out: Minimum Inhibitory Concentrations
Description: as §1, §2, §3

Pseudomonas 2437 = assay: agar dilution MIC, Pseudomonas 2437; details: Mueller-Hinton agar, 10^5 CFU per point, about 18 hrs, 37° C., read-out: Minimum Inhibitory Concentrations
Description: as §1, §2, §3

Proteus 966 = assay: agar dilution MIC, Proteus 966; details: Mueller-Hinton agar, 10^5 CFU per point, about 18 hrs, 37° C., read-out: Minimum Inhibitory Concentrations
Description: as §1, §2, §3

Salmonella 10 = assay: agar dilution MIC, Salmonella 10; details: Mueller-Hinton agar, 10^5 CFU per point, about 18 hrs, 37° C., read-out: Minimum Inhibitory Concentrations
Description: as §1, §2, §3

E. coli 15 = assay: agar dilution MIC, E. coli 15; details: Escherichia coli, Mueller-Hinton agar, 10^5 CFU per point, about 18 hrs, 37° C., read-out: Minimum Inhibitory Concentrations
Description: as §1, §2, §3

Pseudomonas 19 = assay: agar dilution MIC, Pseudomonas 19; details: Mueller-Hinton agar, 10^5 CFU per point, about 18 hrs, 37° C., read-out: Minimum Inhibitory Concentrations
Description: as §1, §2, §3

Proteus 25 = assay: agar dilution MIC, Proteus 25; details: Mueller-Hinton agar, 10^5 CFU per point, about 18 hrs, 37° C., read-out: Minimum Inhibitory Concentrations
Description: as §1, §2, §3

| SMILES | MIC (Staphylococcus 7) [µg/mL] | MIC (E. coli 963) [µg/mL] | MIC (Citrobacter 120) [µg/mL] | MIC (Staphylococcus 29) [µg/mL] | MIC (Staphylococcus 27) [µg/mL] | MIC (Enterobacter 2653) [µg/mL] | MIC (Klebsiella 5) [µg/mL] | MIC (Klebsiella 4) [µg/mL] | MIC (Salmonella 9) [µg/mL] | MIC (Enterobacter 41) [µg/mL] | MIC (Citrobacter 118) [µg/mL] | MIC (Pseudomonas 2437) [µg/mL] | MIC (Proteus 966) [µg/mL] | MIC (Salmonella 10) [µg/mL] | MIC (E. coli 15) [µg/mL] | MIC (Pseudomonas 19) [µg/mL] | MIC (Proteus 25) [µg/mL] |
| --- | --- | --- | --- | --- | --- | --- | --- | --- | --- | --- | --- | --- | --- | --- | --- | --- | --- |
| CCNCC1CCN(c2c(F)cc3c(=O)c(C(=O)O)cn4c3c2SCC4C)C1 (stereo not drawn) [ex. 1, 10-3-[(ethylamino)methyl]1-pyrrolidinyl]-9 fluoro-2,3-dihydro-3-methyl-7-oxo-7H-pyrido [1,2,3 de][1,4]benzothiazine-6-carboxylic acid hydrochloride] | 0.12 | 2 | 4 | 0.25 | 0.25 | 0.25 | 2 | 0.25 | 0.5 | 0.5 | 2 | 64 | 4 | 0.5 | 0.5 | 32 | 4 |
| CCNCC1CCN(c2c(F)cc3c(=O)c(C(=O)O)cn4c3c2OCC4C)C1 (stereo not drawn) [E.P. 0106489 ex. 20, reference compound] | 0.25 (≈ 0.642 µM) | 2 (≈ 5.14 µM) | 2 (≈ 5.14 µM) | 0.5 (≈ 1.28 µM) | 0.25 (≈ 0.642 µM) | 0.25 (≈ 0.642 µM) | 2 (≈ 5.14 µM) | 0.5 (≈ 1.28 µM) | 1 (≈ 2.57 µM) | 1 (≈ 2.57 µM) | 4 (≈ 10.3 µM) | 128 (≈ 329 µM) | 2 (≈ 5.14 µM) | 1 (≈ 2.57 µM) | 0.5 (≈ 1.28 µM) | 64 (≈ 164 µM) | 1 (≈ 2.57 µM) |
| CCNCC1CCN(c2c(F)cc3c(=O)c(C(=O)O)cn4c3c2SCC4)C1 (stereo not drawn) [ex. 2, 10-[3[(ethylamino)methyl]-1-pyrrolidinyl]-9-fluoro-2,3-dihydro-7-oxo-7H-pyr ido [1,2,3 de][1,4]benzothiazine-6-carboxylic acid hydrochloride] | 1 | 8 | 8 | 2 | 8 | 1 | 8 | 2 | 4 | 4 | 8 | > 128 | 8 | 2 | 2 | 128 | 8 |
